{"source": "paper PMC4893617", "about": "(Scientific Reports, 2016)", "key": {"[1]": {"target": "T1, ChuaMOX (mandelonitrile oxidase) (Chamberlinius hualienensis, UniProt A0A173MZJ8)", "T1 construct": "native enzyme purified from millipede bodies without guts; ORF 593 residues incl; 17-residue signal peptide; predicted mature 62,818 Da; 67 kDa SDS-PAGE, 65 kDa gel filtration; monomeric, glycosylated, FAD", "T1 sequence (A0A173MZJ8 entry or part of it)": "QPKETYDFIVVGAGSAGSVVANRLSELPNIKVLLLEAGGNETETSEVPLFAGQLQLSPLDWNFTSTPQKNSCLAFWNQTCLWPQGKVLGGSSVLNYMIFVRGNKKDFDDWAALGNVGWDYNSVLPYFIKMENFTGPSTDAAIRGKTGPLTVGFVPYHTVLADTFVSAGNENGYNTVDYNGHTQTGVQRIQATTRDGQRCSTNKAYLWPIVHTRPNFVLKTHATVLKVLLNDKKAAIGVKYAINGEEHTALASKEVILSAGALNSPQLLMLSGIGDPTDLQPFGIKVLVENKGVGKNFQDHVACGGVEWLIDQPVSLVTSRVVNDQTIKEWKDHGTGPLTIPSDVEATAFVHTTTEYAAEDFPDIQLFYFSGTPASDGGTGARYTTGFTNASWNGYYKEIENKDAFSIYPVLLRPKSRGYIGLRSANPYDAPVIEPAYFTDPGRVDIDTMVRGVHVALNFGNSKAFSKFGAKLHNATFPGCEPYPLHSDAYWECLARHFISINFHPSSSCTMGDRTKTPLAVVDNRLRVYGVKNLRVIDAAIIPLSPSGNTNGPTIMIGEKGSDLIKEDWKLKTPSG", "assay": "biochemical", "set-up": "Oxidase activity of purified native ChuaMOX, ABTS read-out, pH 5, compound added at 1 mM", "details": "for remaining activity at 1000 µM: read-out: % of control remaining", "protocol": "Enzymatic activity decreased in conditions approaching neutral pH, and it was lowest at a pH of 7 (Fig. 1c). After one hour of incubation at 25 °C, 80% of the ChuaMOX activity remained over a range of pH values between 3 and 10 (Fig. 1d). […] After one hour of incubation at pH 8, 80% of the activity remained between 25 °C and 50 °C, and all activity was lost at 70 °C (Fig. 1f). […] (Table 1). The enzyme required [compound left out] as a substrate rather than [compound left out] (see Supplementary Table S3). […] The chemicals (see Supplementary Table S5) were purchased from various suppliers (Sigma-Aldrich, Dojindo, Alfa Aesar, and Tokyo Chemical Industries) or synthesized as described below and used as test substrates, inhibitors, and metal salts. Nitriles were prepared from their corresponding aldehydes by way of bisulfite adducts according to Young et al.[23]."}, "[2]": {"target": "T1, ChuaMOX (mandelonitrile oxidase)", "type": "biochemical"}, "[3]": {"target": "T1, ChuaMOX (mandelonitrile oxidase)", "type": "binding"}}, "note": "Where a name gives a salt, the structure may show the parent alone.", "data": [{"smiles": "NNC(=O)c1ccncc1", "note": "[Isoniazid]", "values": [{"measurement": "remaining activity at 1000 µM", "setting": "[1]", "value": 88, "unit": "%"}]}, {"smiles": "N#CC(O)c1ccccc1", "note": "(racemic) [racemic mandelonitrile]", "values": [{"measurement": "Km", "setting": "[2]", "value": 2100, "unit": "µM"}]}, {"smiles": "O=C(O)CI", "note": "[Iodoacetic acid]", "values": [{"measurement": "remaining activity at 1000 µM", "setting": "[1]", "value": 71.4, "unit": "%"}]}, {"smiles": "CCN1C(=O)C=CC1=O", "note": "[N-Ethylmaleimide]", "values": [{"measurement": "remaining activity at 1000 µM", "setting": "[1]", "value": 96.8, "unit": "%"}]}, {"smiles": "NNC(N)=O", "note": "[Semicarbazide hydrochloride]", "values": [{"measurement": "remaining activity at 1000 µM", "setting": "[1]", "value": 92, "unit": "%"}]}, {"smiles": "Oc1cccc2cccnc12", "note": "[8-Hydroxyquinoline]", "values": [{"measurement": "% of control remaining", "setting": "[1]; pH 5, standard assay, 1000 µM, inhibitor", "value": 56.0, "unit": "%"}]}, {"smiles": "CC(C)NNC(=O)c1ccncc1", "note": "[Iproniazid]", "values": [{"measurement": "remaining activity at 1000 µM", "setting": "[1]", "value": 80, "unit": "%"}]}, {"smiles": "c1ccc(-c2ccccn2)nc1", "note": "[2,2'-Bipyridyl]", "values": [{"measurement": "remaining activity at 1000 µM", "setting": "[1]", "value": 87.3, "unit": "%"}]}, {"smiles": "Cc1cc2nc3c(=O)[nH]c(=O)nc-3n(C[C@H](O)[C@H](O)[C@H](O)COP(=O)(O)OP(=O)(O)OC[C@H]3O[C@@H](n4cnc5c(N)ncnc54)[C@H](O)[C@@H]3O)c2cc1C", "note": "[flavin adenine dinucleotide]", "values": [{"measurement": "thin layer chromatography of the prosthetic group; UV-visible spectrum of purifi", "setting": "[3]", "value": "Thin layer chromatography (TLC) identified the prosthetic group as flavin adenine dinucleotide (FAD)"}]}, {"smiles": "c1cnc2c(c1)ccc1cccnc12", "note": "[1,10-Phenanthroline]", "values": [{"measurement": "remaining activity at 1000 µM", "setting": "[1]", "value": 84.1, "unit": "%"}]}, {"smiles": "C#CCN(C)Cc1ccccc1", "note": "[Pargyline]", "values": [{"measurement": "remaining activity at 1000 µM", "setting": "[1]", "value": 100, "unit": "%"}]}]}
